Laboratory results published in US20100099561A1, “HETEROBICYCLIC ALKYLTHIO-BRIDGED ISOXAZOLINES” (E.I. DU PONT DE NEMOURS AND COMPANY, priority 2008, published 2010).

How the values were obtained:
Assay type in all cases: in vivo
corn (Zea mays) [1] = experiment: Test A postemergence, corn; details: 0 to 100 scale (0 no effect, 100 complete control)
Procedure, shortened: (§1)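 Visual injury rating, 0 = no effect to 100 = complete control, made roughly ten days after treatment by comparison with untreated controls. Preemergence: directed soil spray onto freshly planted loam/sand. Postemergence: foliar application at one- to two-leaf stage, 2–10 cm height.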

[2] = system: cocklebur (Xanthium strumarium); experiment: Test B preemergence, cocklebur; details: scale 0 to 100
Description: (§2) Seeds of plant species selected from blackgrass (Alopecurus myosuroides), downy bromegrass (Bromus tectorum), green foxtail (Setaria viridis), Italian ryegrass (Lolium multiflorum), wheat (Triticum aestivum), wild oat (Avena fatua), catchweed bedstraw (Galium aparine), bermudagrass (Cynodon dactylon), Surinam grass (Brachiaria decumbens), cocklebur (Xanthium strumarium), corn (Zea mays), large crabgrass (Digitaria sanguinalis), woolly cupgrass (Eriochloa villosa), giant foxtail (Setaria faberii), goosegrass (Eleusine indica), johnsongrass (Sorghum halepense), kochia (Kochia scoparia), lambsquarters (Chenopodium album), morningglory (Ipomoea coccinea), nightshade (eastern black nightshade, Solanum ptycanthum), yellow nutsedge (Cyperus esculentus), pigweed (Amaranthus retroflexus), ragweed (common ragweed, Ambrosia elatior), soybean (Glycine max), sunflower (common oilseed sunflower, Helianthus annuus), Russian thistle (Salsola kali), and velvetleaf (Abutilon theophrasti) were planted into a blend of loam soil and sand and treated preemergence with test compounds formulated in a non-phytotoxic solvent mixture which included a surfactant. Treated plants and controls were maintained in a greenhouse for 13 to 15 days, after which time all species were compared to controls and visually evaluated. Plant response ratings, summarized in Table B, are based on a scale of 0 to 100 where 0 is no effect and 100 is complete control. A dash (-) response means no test result.

[3] = system: umbrella sedge (Cyperus difformis); experiment: Test B flooded paddy test, umbrella sedge; details: Flood, scale 0 to 100
Procedure, shortened: (§3)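 Step one: raise plants to 2 leaves. Step two: flood pots 3 cm over the soil and apply compound into the water, keeping this depth. Step three: after 13–15 greenhouse days, score visually versus controls, 0–100, where 100 means complete control.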

rice (Oryza sativa) = experiment: Test B flooded paddy test, rice; details: Flood, scale 0 to 100
Procedure, shortened: as §3

[4] = system: velvetleaf (Abutilon theophrasti); experiment: Test A postemergence, velvetleaf; details: 0 to 100 scale (0 no effect, 100 complete control)
Procedure, shortened: as §1

[5] = system: sunflower (common oilseed sunflower, Helianthus annuus); experiment: Test B preemergence, sunflower; details: Preemergence, scale 0 to 100
Description: as §2

[6] = system: large crabgrass (Digitaria sanguinalis); experiment: Test A preemergence, large crabgrass; details: 0 to 100 scale (0 no effect, 100 complete control)
Procedure, shortened: as §1

[7] = system: barnyardgrass (Echinochloa crus-galli); experiment: Test A preemergence, barnyardgrass; details: 0 to 100 scale (0 no effect, 100 complete control)
Procedure, shortened: as §1

[8] = system: giant foxtail (Setaria faberi); experiment: Test A postemergence, giant foxtail; details: 0 to 100 scale (0 no effect, 100 complete control)
Procedure, shortened: as §1

[9] = system: johnsongrass (Sorghum halepense); experiment: Test B preemergence, johnsongrass; details: scale 0 to 100
Description: as §2

[10] = system: giant foxtail (Setaria faberi); experiment: Test A preemergence, giant foxtail; details: 0 to 100 scale (0 no effect, 100 complete control)
Procedure, shortened: as §1

[11] = system: giant foxtail (Setaria faberii); experiment: Test B preemergence, giant foxtail; details: scale 0 to 100
Description: as §2

[12] = system: velvetleaf (Abutilon theophrasti); experiment: Test A preemergence, velvetleaf; details: 0 to 100 scale (0 no effect, 100 complete control)
Procedure, shortened: as §1

[13] = system: goosegrass (Eleusine indica); experiment: Test B preemergence, goosegrass; details: scale 0 to 100
Description: as §2

corn (Zea mays) [14] = experiment: Test A preemergence, corn; details: 0 to 100 scale (0 no effect, 100 complete control)
Procedure, shortened: as §1

[15] = system: barnyardgrass (Echinochloa crus-galli); experiment: Test B flooded paddy test, barnyardgrass; details: Flood
Procedure, shortened: as §3

[16] = system: pigweed (Amaranthus retroflexus); experiment: Test A postemergence, pigweed; details: 0 to 100 scale (0 no effect, 100 complete control)
Procedure, shortened: as §1

[17] = system: green foxtail (Setaria viridis); experiment: Test B preemergence, green foxtail; details: scale 0 to 100
Description: as §2

corn (Zea mays) [18] = experiment: Test B preemergence, corn; details: scale 0 to 100
Description: as §2

[19] = system: ducksalad (Heteranthera limosa); experiment: Test B flooded paddy test, ducksalad; details: Flood, scale 0 to 100
Procedure, shortened: as §3

[20] = 250 g ai/ha, scale 0 to 100 (0 no effect, 100 complete control)

CC1(C)CC(S(=O)(=O)Cc2c(C(F)(F)F)nc3n(c2=O)CCO3)=NO1 [Compound 2, 6-[[(4,5-dihydro-5,5-dimethyl-3-isoxazolyl)sulfonyl]methyl]-2,3-dihydro-7-(trifluoromethyl)-5H-oxazolo[3,2-α]pyrimidin-5-one]
0: Plant response rating, Corn (corn (Zea mays) [1]; 125 g ai/ha) | Plant response rating, Cocklebur ([2]; 8 g ai/ha) | Plant response rating, Cocklebur ([2]; 16 g ai/ha) | Plant response rating, Cocklebur ([2]; 31 g ai/ha) | Plant response rating, Cocklebur ([2]; 62 g ai/ha) | Plant response rating, Sedge, Umbrella ([3]; 62 g ai/ha) | Plant response rating, Sedge, Umbrella ([3]; 250 g ai/ha) | Plant response rating, Rice (rice (Oryza sativa); 62 g ai/ha) | Plant response rating, Rice (rice (Oryza sativa); 250 g ai/ha) | Plant response rating, Sunflower ([5]; 16 g ai/ha) | Plant response rating, Sunflower ([5]; 31 g ai/ha) | Plant response rating, Sunflower ([5]; 62 g ai/ha) | Plant response rating, Johnsongrass ([9]; 8 g ai/ha) | Plant response rating, Foxtail, Giant ([11]; 8 g ai/ha) | Plant response rating, Goosegrass ([13]; 8 g ai/ha) | Plant response rating, Corn (corn (Zea mays) [14]; 125 g ai/ha) | Plant response rating, Barnyardgrass ([15]; 62 g ai/ha, scale 0 to 100) | Plant response rating, Barnyardgrass [15, 20] | Plant response rating, Foxtail, Green ([17]; 8 g ai/ha) | Plant response rating, Corn (corn (Zea mays) [18]; 8 g ai/ha) | Plant response rating, Corn (corn (Zea mays) [18]; 16 g ai/ha) | Plant response rating, Corn (corn (Zea mays) [18]; 31 g ai/ha) | Plant response rating, Ducksalad ([19]; 62 g ai/ha) | Plant response rating, Ducksalad ([19]; 250 g ai/ha)
65: Plant response rating, Goosegrass ([13]; 16 g ai/ha)
75: Plant response rating, Goosegrass ([13]; 31 g ai/ha)
70: Plant response rating, Foxtail, Giant ([11]; 31 g ai/ha)
10: Plant response rating, Johnsongrass ([9]; 16 g ai/ha) | Plant response rating, Velvetleaf ([12]; 125 g ai/ha) | Plant response rating, Foxtail, Green ([17]; 16 g ai/ha)
60: Plant response rating, Velvetleaf ([4]; 500 g ai/ha) | Plant response rating, Pigweed ([16]; 500 g ai/ha)
98: Plant response rating, Foxtail, Giant ([11]; 62 g ai/ha)
30: Plant response rating, Velvetleaf ([4]; 125 g ai/ha) | Plant response rating, Johnsongrass ([9]; 31 g ai/ha)
85: Plant response rating, Foxtail, Green ([17]; 62 g ai/ha)
90: Plant response rating, Crabgrass, Large ([6]; 125 g ai/ha) | Plant response rating, Barnyardgrass ([7]; 500 g ai/ha) | Plant response rating, Foxtail, Giant ([10]; 125 g ai/ha) | Plant response rating, Velvetleaf ([12]; 500 g ai/ha)
100: Plant response rating, Crabgrass, Large ([6]; 500 g ai/ha) | Plant response rating, Foxtail, Giant ([10]; 500 g ai/ha)
20: Plant response rating, Pigweed ([16]; 125 g ai/ha) | Plant response rating, Corn (corn (Zea mays) [18]; 62 g ai/ha)
55: Plant response rating, Foxtail, Green ([17]; 31 g ai/ha)
80: Plant response rating, Barnyardgrass ([7]; 125 g ai/ha) | Plant response rating, Foxtail, Giant ([8]; 500 g ai/ha) | Plant response rating, Johnsongrass ([9]; 62 g ai/ha) | Plant response rating, Goosegrass ([13]; 62 g ai/ha)
50: Plant response rating, Corn (corn (Zea mays) [1]; 500 g ai/ha) | Plant response rating, Foxtail, Giant ([8]; 125 g ai/ha) | Plant response rating, Foxtail, Giant ([11]; 16 g ai/ha) | Plant response rating, Corn (corn (Zea mays) [14]; 500 g ai/ha)

CC1(C)CC(S(=O)(=O)Cc2c(C(F)(F)F)nc3n(c2=O)CCC3)=NO1 [Compound 11, 3-[[(4,5-dihydro-5,5-dimethyl-3-isoxazolyl)sulfonyl]methyl]-7,8-dihydro-2-(trifluoromethyl)pyrrolo[1,2-α]pyrimidin-4(6H)-one]
50: Plant response rating, Corn (corn (Zea mays) [1]; 500 g ai/ha) | Plant response rating, Velvetleaf ([4]; 125 g ai/ha)
30: Plant response rating, Pigweed ([16]; 125 g ai/ha)
70: Plant response rating, Pigweed ([16]; 500 g ai/ha) | Plant response rating, Foxtail, Green ([17]; 31 g ai/ha)
35: Plant response rating, Ducksalad ([19]; 250 g ai/ha)
100: Plant response rating, Foxtail, Giant ([10]; 500 g ai/ha) | Plant response rating, Foxtail, Giant ([11]; 125 g ai/ha) | Plant response rating, Goosegrass ([13]; 62 g ai/ha) | Plant response rating, Goosegrass ([13]; 125 g ai/ha) | Plant response rating, Foxtail, Green ([17]; 62 g ai/ha) | Plant response rating, Foxtail, Green ([17]; 125 g ai/ha)
90: Plant response rating, Crabgrass, Large ([6]; 500 g ai/ha) | Plant response rating, Barnyardgrass ([7]; 500 g ai/ha) | Plant response rating, Johnsongrass ([9]; 125 g ai/ha) | Plant response rating, Foxtail, Giant ([10]; 125 g ai/ha) | Plant response rating, Goosegrass ([13]; 31 g ai/ha)
25: Plant response rating, Rice (rice (Oryza sativa); 125 g ai/ha) | Plant response rating, Rice (rice (Oryza sativa); 250 g ai/ha)
80: Plant response rating, Velvetleaf ([4]; 500 g ai/ha) | Plant response rating, Crabgrass, Large ([6]; 125 g ai/ha) | Plant response rating, Foxtail, Giant ([8]; 125 g ai/ha) | Plant response rating, Foxtail, Giant ([8]; 500 g ai/ha)
20: Plant response rating, Corn (corn (Zea mays) [1]; 125 g ai/ha) | Plant response rating, Sedge, Umbrella ([3]; 250 g ai/ha) | Plant response rating, Sunflower ([5]; 125 g ai/ha) | Plant response rating, Barnyardgrass [15, 20] | Plant response rating, Foxtail, Green ([17]; 16 g ai/ha)
95: Plant response rating, Foxtail, Giant ([11]; 62 g ai/ha)
65: Plant response rating, Johnsongrass ([9]; 62 g ai/ha) | Plant response rating, Goosegrass ([13]; 16 g ai/ha)
0: Plant response rating, Cocklebur ([2]; 16 g ai/ha) | Plant response rating, Cocklebur ([2]; 31 g ai/ha) | Plant response rating, Cocklebur ([2]; 62 g ai/ha) | Plant response rating, Cocklebur ([2]; 125 g ai/ha) | Plant response rating, Sedge, Umbrella ([3]; 31 g ai/ha) | Plant response rating, Sedge, Umbrella ([3]; 62 g ai/ha) | Plant response rating, Sedge, Umbrella ([3]; 125 g ai/ha) | Plant response rating, Rice (rice (Oryza sativa); 31 g ai/ha) | Plant response rating, Rice (rice (Oryza sativa); 62 g ai/ha) | Plant response rating, Sunflower ([5]; 16 g ai/ha) | Plant response rating, Sunflower ([5]; 31 g ai/ha) | Plant response rating, Sunflower ([5]; 62 g ai/ha) | Plant response rating, Johnsongrass ([9]; 16 g ai/ha) | Plant response rating, Foxtail, Giant ([11]; 16 g ai/ha) | Plant response rating, Corn (corn (Zea mays) [14]; 125 g ai/ha) | Plant response rating, Corn (corn (Zea mays) [14]; 500 g ai/ha) | Plant response rating, Barnyardgrass ([15]; 31 g ai/ha, scale 0 to 100) | Plant response rating, Barnyardgrass ([15]; 62 g ai/ha, scale 0 to 100) | Plant response rating, Barnyardgrass ([15]; 125 g ai/ha, scale 0 to 100) | Plant response rating, Corn (corn (Zea mays) [18]; 16 g ai/ha) | Plant response rating, Corn (corn (Zea mays) [18]; 31 g ai/ha) | Plant response rating, Corn (corn (Zea mays) [18]; 62 g ai/ha) | Plant response rating, Corn (corn (Zea mays) [18]; 125 g ai/ha) | Plant response rating, Ducksalad ([19]; 31 g ai/ha) | Plant response rating, Ducksalad ([19]; 62 g ai/ha) | Plant response rating, Ducksalad ([19]; 125 g ai/ha)
60: Plant response rating, Barnyardgrass ([7]; 125 g ai/ha) | Plant response rating, Johnsongrass ([9]; 31 g ai/ha) | Plant response rating, Velvetleaf ([12]; 500 g ai/ha)
10: Plant response rating, Velvetleaf ([12]; 125 g ai/ha)
40: Plant response rating, Foxtail, Giant ([11]; 31 g ai/ha)
